Reference: US20230096528A1, “Pharmaceutical Composition for Treatment or Prevention of Multiple Inflammatory disorders” (priority 2019, published 2023)

System: diet-induced (DIO) mice
Test: Body weight study in diet-induced (DIO) mice (Example 9)
Format: in vivo, C57BL/6NTac mice
Conditions: gavage BID (DA 92.4 mg/kg, CQL 50 mg/kg)
Procedure: This example provides results of a study of DA plus another compound (CQL) on body weight in diet-induced (DIO) mice. Adult C57BL/6NTac mice were fed with a high fat diet (60%). […] The study period was for 56 days+2-3 days testing period afterward. Body weight change measure 3× per week, food and water consumption on days 0, 12, 28, 42 and 56. Metabolic biomarkers were measured on days 28 and 56. Cytokine analysis on Days 28 and 56. Serum levels of GLP-1, GLP-2, and CCK at 1 h after dosing on Days 1 and 56, and at 2 h after dosing on Day 7 (dosing (>6 h fasting prior to dosing until after blood collection); and serum level of PPY on Day 56.

Oc1c(I)cc(Cl)c2cccnc12 [CQL]
Serum HbA1c level at Day 28: significantly reduced | Serum HbA1c level at Day 56: considerably increased | Daily water intake at Day 28 (vs vehicle): significantly decreased
